Literature values as cited in patent US10058543B2, “Treatment of familial exudative vitreoretinopathy through S1PR2 inhibition” (DALHOUSIE UNIVERSITY, priority 2014, dated 2018).
“Also recorded” adds a separate entry of the source.

Tests used:
S1PR2 = S1PR2 (Homo sapiens, UniProt O95136)
VEGF = conditions: ocular injection, FEVR patient, one study
Sequence of VEGF (P15692 207-311 limits assumed): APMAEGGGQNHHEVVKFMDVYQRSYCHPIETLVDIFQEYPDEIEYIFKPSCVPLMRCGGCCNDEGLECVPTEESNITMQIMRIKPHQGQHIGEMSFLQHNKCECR

Sequence of S1PR2 (O95136 whole entry): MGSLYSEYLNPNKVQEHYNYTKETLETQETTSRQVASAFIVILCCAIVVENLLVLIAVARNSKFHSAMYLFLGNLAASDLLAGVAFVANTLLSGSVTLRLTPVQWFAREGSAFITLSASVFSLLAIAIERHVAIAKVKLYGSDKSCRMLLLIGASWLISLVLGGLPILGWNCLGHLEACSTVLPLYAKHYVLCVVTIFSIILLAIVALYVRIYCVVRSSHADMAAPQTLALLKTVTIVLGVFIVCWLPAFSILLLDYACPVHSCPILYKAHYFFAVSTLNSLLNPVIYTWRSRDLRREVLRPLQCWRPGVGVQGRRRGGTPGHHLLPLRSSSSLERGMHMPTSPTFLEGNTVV

Molecule | specificity for S1PR2 versus other S1PRs (S1PR2) [fold] | affinity (S1PR2; S1PR2, stated in words) | specificity for S1PR2 (S1PR2; stated in words) | retinal hemorrhage and neovascularization (VEGF)
Cc1nn(C)c2nc(NNC(=O)Nc3cc(Cl)nc(Cl)c3)cc(C(C)C)c12 [JTE-103, 1-(2,6-dichloro-4-pyridyl)-3-[(4-isopropyl-1,3-dimethyl-pyrazolo[3,4-n]pyridin-6-yl)amino]urea] | 10 | uM affinity; also recorded: low affinity | some specificity for S1PR2 | –
bevacizumab: monoclonal antibody that inhibits VEGF function originally developed to treat cancers | – | – | – | improvement of retinal hemorrhage and neovascularization
